{
  "source": "ChEMBL document CHEMBL1201862",
  "about": "“PubChem BioAssay data set” (2004)",
  "experiment_in_all_cases": "NCI-60 cell line screen, 48 h",
  "key": {"ACHN": {"test_system": "ACHN"}, "OVCAR-8": {"test_system": "OVCAR-8"}, "IGROV-1": {"test_system": "IGROV-1"}, "RXF 393": {"test_system": "RXF 393"}, "CAKI-1": {"test_system": "CAKI-1"}, "A549": {"test_system": "A549"}, "UO-31": {"test_system": "UO-31"}, "SNB-75": {"test_system": "SNB-75"}, "KM12": {"test_system": "KM12"}, "SK-MEL-2": {"test_system": "SK-MEL-2"}, "NCI/ADR-RES": {"test_system": "NCI/ADR-RES"}, "TK-10": {"test_system": "TK-10"}, "COLO 205": {"test_system": "COLO 205"}, "NCI-H23": {"test_system": "NCI-H23"}, "SK-MEL-28": {"test_system": "SK-MEL-28"}, "OVCAR-5": {"test_system": "OVCAR-5"}, "DU-145": {"test_system": "DU-145"}, "SF-295": {"test_system": "SF-295"}, "HCT-116": {"test_system": "HCT-116"}, "HT-29": {"test_system": "HT-29"}},
  "note": "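Grown in 96-well plates, cells were treated for 48 hours with each compound at five concentrations. Insufficient inhibition: endpoint recorded as highest concentration tested. Abbreviation: GI50, concentration required for 50% inhibition of growth.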 Active and inactive are the calls of the source. Cut-off read from the data, not from the text of the source: active = GI50 up to about 1.1 µM and inactive = higher.",
  "data": [
    {"smiles": "OC(CCN1CCN(CCOC(c2ccc(F)cc2)c2ccc(F)cc2)CC1)c1ccccc1", "note": "(stereo not given)", "values": [
      {"measurement": "GI50", "setting": "ACHN", "result": "12.9 µM (inactive)"},
      {"measurement": "GI50", "setting": "OVCAR-8", "result": "12.9 µM (inactive)"},
      {"measurement": "GI50", "setting": "IGROV-1", "result": "13.6 µM (inactive)"},
      {"measurement": "GI50", "setting": "RXF 393", "result": "11.1 µM (inactive)"},
      {"measurement": "GI50", "setting": "CAKI-1", "result": "16.8 µM (inactive)"},
      {"measurement": "GI50", "setting": "A549", "result": "16.4 µM (inactive)"},
      {"measurement": "GI50", "setting": "UO-31", "result": "3.37 µM (inactive)"},
      {"measurement": "GI50", "setting": "SNB-75", "result": "13.5 µM (inactive)"},
      {"measurement": "GI50", "setting": "KM12", "result": "18.5 µM (inactive)"},
      {"measurement": "GI50", "setting": "SK-MEL-2", "result": "15.3 µM (inactive)"},
      {"measurement": "GI50", "setting": "NCI/ADR-RES", "result": "13.3 µM (inactive)"},
      {"measurement": "GI50", "setting": "TK-10", "result": "15 µM (inactive)"},
      {"measurement": "GI50", "setting": "COLO 205", "result": "4.09 µM (inactive)"},
      {"measurement": "GI50", "setting": "NCI-H23", "result": "16.6 µM (inactive)"},
      {"measurement": "GI50", "setting": "SK-MEL-28", "result": "17.5 µM (inactive)"},
      {"measurement": "GI50", "setting": "OVCAR-5", "result": "14.5 µM (inactive)"},
      {"measurement": "GI50", "setting": "DU-145", "result": "17.3 µM (inactive)"},
      {"measurement": "GI50", "setting": "SF-295", "result": "18.3 µM (inactive)"},
      {"measurement": "GI50", "setting": "HCT-116", "result": "13.4 µM (inactive)"},
      {"measurement": "GI50", "setting": "HT-29", "result": "8.65 µM (inactive)"}
    ]},
    {"smiles": "Cc1ccc2nc(/C=N/c3ccc(Cl)cc3)cc(C)c2c1", "values": [
      {"measurement": "GI50", "setting": "ACHN", "result": "0.128 µM (active)"},
      {"measurement": "GI50", "setting": "OVCAR-8", "result": "10.3 µM (inactive)"},
      {"measurement": "GI50", "setting": "IGROV-1", "result": "0.989 µM (active)"},
      {"measurement": "GI50", "setting": "RXF 393", "result": "24.7 µM (inactive)"},
      {"measurement": "GI50", "setting": "CAKI-1", "result": "1.38 µM (inactive)"},
      {"measurement": "GI50", "setting": "A549", "result": "1.24 µM (inactive)"},
      {"measurement": "GI50", "setting": "UO-31", "result": "0.381 µM (active)"},
      {"measurement": "GI50", "setting": "SNB-75", "result": "17 µM (inactive)"},
      {"measurement": "GI50", "setting": "KM12", "result": "0.269 µM (active)"},
      {"measurement": "GI50", "setting": "SK-MEL-2", "result": "25.8 µM (inactive)"},
      {"measurement": "GI50", "setting": "NCI/ADR-RES", "result": "3.44 µM (inactive)"},
      {"measurement": "GI50", "setting": "TK-10", "result": "2.9 µM (inactive)"},
      {"measurement": "GI50", "setting": "COLO 205", "result": "1.16 µM (inactive)"},
      {"measurement": "GI50", "setting": "NCI-H23", "result": "9.91 µM (inactive)"},
      {"measurement": "GI50", "setting": "SK-MEL-28", "result": "13.4 µM (inactive)"},
      {"measurement": "GI50", "setting": "OVCAR-5", "result": "3.67 µM (inactive)"},
      {"measurement": "GI50", "setting": "DU-145", "result": "0.659 µM (active)"},
      {"measurement": "GI50", "setting": "SF-295", "result": "0.798 µM (active)"},
      {"measurement": "GI50", "setting": "HCT-116", "result": "1.08 µM (active)"},
      {"measurement": "GI50", "setting": "HT-29", "result": "2.64 µM (inactive)"}
    ]},
    {"smiles": "CCCCCNC(=O)c1cc2cc(CCl)ccc2oc1=O", "values": [
      {"measurement": "GI50", "setting": "ACHN", "result": "2.01 µM (inactive)"},
      {"measurement": "GI50", "setting": "OVCAR-8", "result": "35.7 µM (inactive)"},
      {"measurement": "GI50", "setting": "IGROV-1", "result": "4.71 µM (inactive)"},
      {"measurement": "GI50", "setting": "RXF 393", "result": "0.798 µM (active)"},
      {"measurement": "GI50", "setting": "CAKI-1", "result": "1.21 µM (inactive)"},
      {"measurement": "GI50", "setting": "A549", "result": "4.65 µM (inactive)"},
      {"measurement": "GI50", "setting": "UO-31", "result": "1.63 µM (inactive)"},
      {"measurement": "GI50", "setting": "SNB-75", "result": "4.44 µM (inactive)"},
      {"measurement": "GI50", "setting": "KM12", "result": "10.2 µM (inactive)"},
      {"measurement": "GI50", "setting": "SK-MEL-2", "result": "3.1 µM (inactive)"},
      {"measurement": "GI50", "setting": "NCI/ADR-RES", "result": "16.4 µM (inactive)"},
      {"measurement": "GI50", "setting": "TK-10", "result": "1.52 µM (inactive)"},
      {"measurement": "GI50", "setting": "COLO 205", "result": "1.33 µM (inactive)"},
      {"measurement": "GI50", "setting": "NCI-H23", "result": "2.62 µM (inactive)"},
      {"measurement": "GI50", "setting": "SK-MEL-28", "result": "9.42 µM (inactive)"},
      {"measurement": "GI50", "setting": "OVCAR-5", "result": "2.88 µM (inactive)"},
      {"measurement": "GI50", "setting": "DU-145", "result": "2.26 µM (inactive)"},
      {"measurement": "GI50", "setting": "SF-295", "result": "6.56 µM (inactive)"},
      {"measurement": "GI50", "setting": "HCT-116", "result": "3.84 µM (inactive)"},
      {"measurement": "GI50", "setting": "HT-29", "result": "2.42 µM (inactive)"}
    ]}
  ]
}
